Results taken from PubChem BioAssay (NCI).
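These data come from cells grown in 96-well plates and exposed to compound for 48 hours at five concentrations. TGI denotes the concentration required for complete inhibition of growth.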

What was measured:
Assay in all cases: NCI tumour cell line growth inhibition, 48 h
HS 578T breast = system: HS 578T breast
HOP-62 NSCLC = system: HOP-62 NSCLC
SR leukemia = system: SR leukemia
UACC-257 melanoma = system: UACC-257 melanoma
HOP-92 NSCLC = system: HOP-92 NSCLC
HCC-2998 colon = system: HCC-2998 colon
MDA-N = system: MDA-N
A498 renal = system: A498 renal
IGROV1 ovarian = system: IGROV1 ovarian
ACHN renal = system: ACHN renal
SK-MEL-2 melanoma = system: SK-MEL-2 melanoma
SF-268 CNS = system: SF-268 CNS
MALME-3M melanoma = system: MALME-3M melanoma
MDA-MB-435 = system: MDA-MB-435
OVCAR-5 ovarian = system: OVCAR-5 ovarian
NCI-H522 lung = system: NCI-H522 lung
HT29 colon = system: HT29 colon
KM12 colon = system: KM12 colon
CCRF-CEM leukemia = system: CCRF-CEM leukemia
BT-549 breast = system: BT-549 breast
UACC-62 melanoma = system: UACC-62 melanoma
UO-31 renal = system: UO-31 renal
MCF7 breast = system: MCF7 breast
LOX IMVI melanoma = system: LOX IMVI melanoma
SNB-19 CNS = system: SNB-19 CNS
OVCAR-4 ovarian = system: OVCAR-4 ovarian
SW-620 colon = system: SW-620 colon
NCI-H23 lung = system: NCI-H23 lung
NCI-H460 lung = system: NCI-H460 lung
U251 CNS = system: U251 CNS
NCI/ADR-RES ovarian = system: NCI/ADR-RES ovarian
SF-295 CNS = system: SF-295 CNS
CAKI-1 renal = system: CAKI-1 renal
SN12C renal = system: SN12C renal
HL-60(TB) leukemia = system: HL-60(TB) leukemia
T-47D breast = system: T-47D breast
EKVX NSCLC = system: EKVX NSCLC
786-0 renal = system: 786-0 renal
SNB-75 CNS = system: SNB-75 CNS
SK-MEL-28 melanoma = system: SK-MEL-28 melanoma
SK-OV-3 ovarian = system: SK-OV-3 ovarian
RPMI-8226 leukemia = system: RPMI-8226 leukemia
OVCAR-8 ovarian = system: OVCAR-8 ovarian
OVCAR-3 ovarian = system: OVCAR-3 ovarian
COLO 205 colon = system: COLO 205 colon
TK-10 renal = system: TK-10 renal
K-562 leukemia = system: K-562 leukemia
HCT-15 colon = system: HCT-15 colon
MDA-MB-231 breast = system: MDA-MB-231 breast
PC-3 prostate = system: PC-3 prostate
RXF 393 renal = system: RXF 393 renal
A549 NSCLC = system: A549 NSCLC
SK-MEL-5 melanoma = system: SK-MEL-5 melanoma
NCI-H226 lung = system: NCI-H226 lung
DU-145 prostate = system: DU-145 prostate
HCT-116 colon = system: HCT-116 colon
M14 melanoma = system: M14 melanoma
SF-539 CNS = system: SF-539 CNS

## S=C(S)NCCN1CCNCC1
HS 578T breast
  TGI: > 100 µM
HOP-62 NSCLC
  TGI: > 100 µM
SR leukemia
  TGI: > 100 µM
UACC-257 melanoma
  TGI: 59 µM
HOP-92 NSCLC
  TGI: > 100 µM
HCC-2998 colon
  TGI: 68.7 µM
MDA-N
  TGI: > 100 µM
A498 renal
  TGI: > 100 µM
IGROV1 ovarian
  TGI: > 100 µM
ACHN renal
  TGI: > 100 µM
SK-MEL-2 melanoma
  TGI: > 100 µM
SF-268 CNS
  TGI: > 100 µM
MALME-3M melanoma
  TGI: 82.5 µM
MDA-MB-435
  TGI: > 100 µM
OVCAR-5 ovarian
  TGI: > 100 µM
NCI-H522 lung
  TGI: 32.7 µM
HT29 colon
  TGI: > 100 µM
KM12 colon
  TGI: > 100 µM
CCRF-CEM leukemia
  TGI: > 100 µM
BT-549 breast
  TGI: > 100 µM
UACC-62 melanoma
  TGI: > 100 µM
UO-31 renal
  TGI: > 100 µM
MCF7 breast
  TGI: > 100 µM
LOX IMVI melanoma
  TGI: > 100 µM
SNB-19 CNS
  TGI: > 100 µM
OVCAR-4 ovarian
  TGI: > 100 µM
SW-620 colon
  TGI: > 100 µM
NCI-H23 lung
  TGI: > 100 µM
NCI-H460 lung
  TGI: > 100 µM
U251 CNS
  TGI: > 100 µM
NCI/ADR-RES ovarian
  TGI: > 100 µM
SF-295 CNS
  TGI: > 100 µM
CAKI-1 renal
  TGI: > 100 µM
SN12C renal
  TGI: > 100 µM
HL-60(TB) leukemia
  TGI: 8.01 µM
T-47D breast
  TGI: 60.7 µM
EKVX NSCLC
  TGI: > 100 µM
786-0 renal
  TGI: 77 µM
SNB-75 CNS
  TGI: > 100 µM
SK-MEL-28 melanoma
  TGI: > 100 µM
SK-OV-3 ovarian
  TGI: > 100 µM
RPMI-8226 leukemia
  TGI: 47.5 µM
OVCAR-8 ovarian
  TGI: 95.3 µM
OVCAR-3 ovarian
  TGI: 63.8 µM
COLO 205 colon
  TGI: 43.7 µM
TK-10 renal
  TGI: 58.4 µM
K-562 leukemia
  TGI: > 100 µM
HCT-15 colon
  TGI: > 100 µM
MDA-MB-231 breast
  TGI: > 100 µM
PC-3 prostate
  TGI: > 100 µM
RXF 393 renal
  TGI: 64.3 µM
A549 NSCLC
  TGI: > 100 µM
SK-MEL-5 melanoma
  TGI: > 100 µM
NCI-H226 lung
  TGI: > 100 µM
DU-145 prostate
  TGI: > 100 µM
HCT-116 colon
  TGI: > 100 µM
M14 melanoma
  TGI: > 100 µM

## CCOC(=O)c1cc([N+](=O)[O-])c(Sc2ncnc3nc[nH]c23)c([N+](=O)[O-])c1
HS 578T breast
  TGI: 49.1 µM
HOP-62 NSCLC
  TGI: 24.8 µM
SR leukemia
  TGI: 83.3 µM
UACC-257 melanoma
  TGI: 20.6 µM
HOP-92 NSCLC
  TGI: 7.85 µM
HCC-2998 colon
  TGI: 36.7 µM
MDA-N
  TGI: 15.1 µM
A498 renal
  TGI: 25.6 µM
IGROV1 ovarian
  TGI: 13.7 µM
ACHN renal
  TGI: 19.9 µM
SK-MEL-2 melanoma
  TGI: 24.6 µM
SF-268 CNS
  TGI: 17.8 µM
MALME-3M melanoma
  TGI: 18.1 µM
MDA-MB-435
  TGI: 14.7 µM
OVCAR-5 ovarian
  TGI: 5.15 µM
SF-539 CNS
  TGI: 13.4 µM
NCI-H522 lung
  TGI: 2.34 µM
HT29 colon
  TGI: 14.5 µM
KM12 colon
  TGI: 24.5 µM
CCRF-CEM leukemia
  TGI: 4.39 µM
BT-549 breast
  TGI: 20.1 µM
UACC-62 melanoma
  TGI: 11.9 µM
UO-31 renal
  TGI: 7.08 µM
MCF7 breast
  TGI: 3.41 µM
LOX IMVI melanoma
  TGI: 17.9 µM
SNB-19 CNS
  TGI: 32.4 µM
SW-620 colon
  TGI: 5.25 µM
NCI-H23 lung
  TGI: 28.7 µM
NCI-H460 lung
  TGI: 25.6 µM
U251 CNS
  TGI: 22.8 µM
NCI/ADR-RES ovarian
  TGI: 14.3 µM
SF-295 CNS
  TGI: > 35.6 µM
CAKI-1 renal
  TGI: 12.7 µM
SN12C renal
  TGI: 30.6 µM
HL-60(TB) leukemia
  TGI: 23.4 µM
T-47D breast
  TGI: 30 µM
EKVX NSCLC
  TGI: 15.4 µM
786-0 renal
  TGI: 7.98 µM
SK-MEL-28 melanoma
  TGI: 29.2 µM
SK-OV-3 ovarian
  TGI: 5.04 µM
RPMI-8226 leukemia
  TGI: 6.08 µM
OVCAR-8 ovarian
  TGI: 17.9 µM
OVCAR-3 ovarian
  TGI: 7.52 µM
COLO 205 colon
  TGI: 3.08 µM
TK-10 renal
  TGI: 5.81 µM
HCT-15 colon
  TGI: 6.57 µM
MDA-MB-231 breast
  TGI: 19.5 µM
PC-3 prostate
  TGI: 27.9 µM
RXF 393 renal
  TGI: 23.3 µM
A549 NSCLC
  TGI: 55.6 µM
SK-MEL-5 melanoma
  TGI: 23 µM
NCI-H226 lung
  TGI: 17.3 µM
DU-145 prostate
  TGI: 29.2 µM
HCT-116 colon
  TGI: 3.94 µM
M14 melanoma
  TGI: 15 µM
